Values after ≈ are worked out from the molar mass of the structure shown.
Legend:
[1] = medium FaSSIF-Original; Söderlind; cited from earlier work
[2] = Solubility in canine FaSSIF (FaSSIF-canine)
physchem = details: fassif

solubility (physchem) | Compound | solubility in prior art FaSSIF-Original [1] | solubility [2]
 | CC(=O)N1CCN(c2ccc(OCC3COC(Cn4ccnc4)(c4ccc(Cl)cc4Cl)O3)cc2)CC1 (stereo not shown) [ketoconazole] | 26 µg/mL (≈ 48.9 µM) | 84.2 µg/mL (≈ 158 µM)
75 µg/mL (≈ 149 µM) | OCCN(CCO)c1nc(N2CCCCC2)c2nc(N(CCO)CCO)nc(N3CCCCC3)c2n1 [dipyridamole] | 19 µg/mL (≈ 37.7 µM) | 

Reference: US20150064794A1, “BIORELEVANT COMPOSITIONS” (PHARES PHARMACEUTICAL RESEARCH N.V., priority 2012, published 2015)
